These results are taken from patent US11332479B2, “Imidazooxazole derivative having antitumor effect, and pharmaceutical composition including same” (KOREA INSTITUTE OF SCIENCE AND TECHNOLOGY, priority 2016, dated 2022).

One series deals with V600E-B-RAF (Homo sapiens (Human), UniProt P15056, V600E). The series is described as follows: Protein kinase enzymatic activity (Reaction Biology kinase hotspot), V600E-B-RAF. In kind it is biochemical. Particulars: for IC50: read-out: Inhibitory effect against kinase activity of V600E-B-RAF (IC50); for Inhibitory effect against enzymatic activity of V600E-RAF, in words: compared with GW5074 and vemurafenib. The procedure: (§1) Reaction biology kinase hotspot service (http://www.reactionbiology.com) was used to measure IC50. In a final reaction volume of 25 μL, kinase (5 mU to 10 mU) was incubated with 25 mM Tris (pH 7.5), 0.02 mM EGTA, 0.66 mg/ml of myelin basic protein, 10 mM magnesium acetate, and [^33P-ATP] (specific activity of about 500 CPM/pmol, concentration as required). The reaction was initiated by addition of Mg-ATP mix. After incubation for 40 min at room temperature, the reaction was stopped by addition of 5 μl of a 3% phosphoric acid solution. 10 μL of the reaction was then spotted onto a P30 filtermat and washed three times for 5 minutes in 75 mM phosphoric acid and once in methanol prior to drying and scintillation counting.
Sequence of V600E-B-RAF (P15056 whole entry V600E): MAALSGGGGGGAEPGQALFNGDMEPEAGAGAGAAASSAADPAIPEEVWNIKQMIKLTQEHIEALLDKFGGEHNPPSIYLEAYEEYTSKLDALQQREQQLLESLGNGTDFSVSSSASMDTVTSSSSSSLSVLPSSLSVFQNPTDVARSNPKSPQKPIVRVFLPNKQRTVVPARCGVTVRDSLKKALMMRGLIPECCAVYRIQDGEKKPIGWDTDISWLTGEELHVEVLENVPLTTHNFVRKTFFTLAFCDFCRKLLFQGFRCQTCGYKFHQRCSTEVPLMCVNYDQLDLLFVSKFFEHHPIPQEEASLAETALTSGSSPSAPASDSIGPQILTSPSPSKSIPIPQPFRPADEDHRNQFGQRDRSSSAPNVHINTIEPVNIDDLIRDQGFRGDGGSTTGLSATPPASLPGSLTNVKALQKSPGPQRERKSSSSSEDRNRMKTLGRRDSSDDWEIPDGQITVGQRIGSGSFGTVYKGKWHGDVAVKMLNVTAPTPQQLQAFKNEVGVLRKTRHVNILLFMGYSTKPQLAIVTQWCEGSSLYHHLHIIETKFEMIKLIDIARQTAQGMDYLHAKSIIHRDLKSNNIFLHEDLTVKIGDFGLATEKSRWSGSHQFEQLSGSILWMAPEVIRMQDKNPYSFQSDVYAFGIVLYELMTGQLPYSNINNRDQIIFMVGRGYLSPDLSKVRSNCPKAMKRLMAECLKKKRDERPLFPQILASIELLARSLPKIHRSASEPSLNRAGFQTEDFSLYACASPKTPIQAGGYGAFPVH

Series [1] relates to A375P cell line xenograft. The series is described as follows: Tumor-inhibitory effects in melanoma xenograft mouse model. In kind it is in vivo, nude mice. Here is the method:
In this experiment, A375P cell line which is a human-derived malignant melanoma cell line was subcutaneously administered to nude mice to prepare xenograft models, and the test material (compound 2II) was administered to the xenograft models to evaluate anti-cancer effects (G1: an excipient control group, G2: a group administered with 20 mg/kg/day of the test material, and G3: a group administered with 50 mg/kg/day of the test material).

A further series deals with B-RAF (Homo sapiens (Human), UniProt P15056). The series is described as follows: Protein kinase enzymatic activity (Reaction Biology kinase hotspot), B-RAF. It counts as biochemical. Particulars: for Inhibitory effect against enzymatic activity of B-RAF, in words: compared with GW5074 and vemurafenib; for IC50: read-out: Inhibitory effect against kinase activity of B-RAF (IC50). The procedure: as §1
Sequence of B-RAF (P15056 whole entry): as the sequence (P15056 whole entry V600E) above, with E600V counted along it

The target of another series is C-RAF (Homo sapiens (Human), UniProt P04049). The series is described as follows: Protein kinase enzymatic activity (Reaction Biology kinase hotspot), C-RAF. In kind it is biochemical. Conditions: for Inhibitory effect against enzymatic activity of C-RAF, in words: compared with GW5074 and vemurafenib; for IC50: read-out: Inhibitory effect against kinase activity of C-RAF (IC50). Here is the method:
as §1

Sequence of C-RAF (P04049 whole entry): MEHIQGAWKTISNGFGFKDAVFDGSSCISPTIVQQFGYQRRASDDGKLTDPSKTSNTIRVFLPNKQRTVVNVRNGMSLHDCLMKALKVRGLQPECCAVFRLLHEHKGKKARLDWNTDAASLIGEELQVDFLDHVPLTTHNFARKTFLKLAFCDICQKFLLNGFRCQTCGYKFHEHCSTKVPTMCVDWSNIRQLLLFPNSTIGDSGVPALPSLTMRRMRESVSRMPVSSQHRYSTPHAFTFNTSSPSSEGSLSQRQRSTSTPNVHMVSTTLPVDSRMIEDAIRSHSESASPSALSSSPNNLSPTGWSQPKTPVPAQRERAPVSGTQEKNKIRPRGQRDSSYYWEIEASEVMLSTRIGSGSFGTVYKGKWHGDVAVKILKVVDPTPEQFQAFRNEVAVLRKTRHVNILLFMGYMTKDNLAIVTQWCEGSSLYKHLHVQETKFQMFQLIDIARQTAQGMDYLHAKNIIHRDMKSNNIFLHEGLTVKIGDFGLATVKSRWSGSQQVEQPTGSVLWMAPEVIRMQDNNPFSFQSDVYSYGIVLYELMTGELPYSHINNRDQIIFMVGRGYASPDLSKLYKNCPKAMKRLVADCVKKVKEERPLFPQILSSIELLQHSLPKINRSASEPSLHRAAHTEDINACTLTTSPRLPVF

Consider `O=S(=O)(NCCNc1nccc(-c2c(-c3ccc(F)c(O)c3)nc3sccn23)n1)c1ccccc1` [Compound 46III, N-(2-(4-(6-(4-fluoro-3-hydroxyphenyl)imidazo[2,1-b]thiazol-5-yl)pyrimidin-2-ylamino)ethyl)benzenesulfonamide], for which, at V600E-B-RAF, the IC50 worked out at 0.15 nM.

As for `CCN1CCN(CCNc2nccc(-c3c(-c4cccc(O)c4)nc4occn34)n2)S1(=O)=O` [Compound 2II, 2-Ethyl-5-(2-((4-(6-(3-hydroxylphenyl)imidazo[2,1-b]oxazol-5-yl)pyrimidin-2-yl)amino)ethyl)-1,2,5-thiadiazolidine 1,1-dioxide], at V600E-B-RAF, the “Inhibitory effect against enzymatic activity of V600E-RAF, in words” value (“Inhibitory effect … of V600E-RAF, in words” for short) is given as “excellent inhibitory effects”. In series [1] (20 and 50 mg/kg/day, twice per week for 3 weeks), the “General symptoms and deaths” value was “no deaths or no abnormalities in general symptoms were observed”. In addition, the “Tumor size, difference between all experimental groups” value in series [1] (G1, G2, G3) was “no significant difference”. Also, the “Body weight compared with control group (G1)” value in series [1] (G3, 50 mg/kg/day, 14 days and 21 days after administration) is listed as “significantly low”. The “Increase of the tumor size” value in series [1] (groups administered with 20 and 50 mg/kg/day) is listed as “inhibited in a dose-dependent manner”. Further, at B-RAF, the “Inhibitory effect against enzymatic activity of B-RAF, in words” value (shortened to “Inhibitory effect … of B-RAF, in words”) is on record as “excellent inhibitory effects”. Besides, at C-RAF, the “Inhibitory effect against enzymatic activity of C-RAF, in words” value (“Inhibitory effect … of C-RAF, in words” below) is listed as “excellent inhibitory effects” and the IC50 amounted to 0.75 nM.

On to `O=S(=O)(NCCCNc1nccc(-c2c(-c3ccc(F)c(O)c3)nc3occn23)n1)c1ccc(Cl)cc1` [70 IV, 4-chloro-N-(3-(4-(6-(4-fluoro-3-hydroxyphenyl)imidazo[2,1-b]oxazol-5-yl)pyrimidin-2-ylamino)propyl)benzenesulfonamide], for which, at V600E-B-RAF, the half-inhibitory concentration (IC50) was 0.15 nM.

On to `O=S(=O)(NCCNc1nccc(-c2c(-c3ccc(F)c(O)c3)nc3occn23)n1)c1ccc(F)cc1` [64 IV, 4-fluoro-N-(2-(4-(6-(4-fluoro-3-hydroxyphenyl)imidazo[2,1-b]oxazol-5-yl)pyrimidin-2-ylamino)ethyl)benzenesulfonamide], for which the IC50 on V600E-B-RAF was found to be 0.36 nM.

For the molecule `O=S(=O)(NCCCNc1nccc(-c2c(-c3cccc(O)c3)nc3sccn23)n1)c1ccc(F)cc1` [Compound 31III, 4-Fluoro-N-(3-((4-(6-(3-hydroxylphenyl)imidazo[2,1-b]thiazol-5-yl)pyrimidin-2-yl)amino)propyl)benzenesulfonamide], on V600E-B-RAF, the “Inhibitory effect … of V600E-RAF, in words” value is “excellent inhibitory effects”. Besides, at B-RAF, the “Inhibitory effect … of B-RAF, in words” value is “excellent inhibitory effects”. In addition, the “Inhibitory effect … of C-RAF, in words” value at C-RAF is listed as “excellent inhibitory effects”.

Take `COc1cc(-c2nc3occn3c2-c2ccnc(NCCCNS(=O)(=O)c3ccc(Cl)cc3)n2)ccc1F` [60 IV, 4-chloro-N-(3-(4-(6-(4-fluoro-3-methoxyphenyl)imidazo[2,1-b]oxazol-5-yl)pyrimidin-2-ylamino)propyl)benzenesulfonamide]: at V600E-B-RAF, the IC50 was 11.3 nM.

Consider `COc1cc(-c2nc3sccn3c2-c2ccnc(NCCCNS(=O)(=O)c3ccc(Cl)cc3)n2)ccc1F` [Compound 38III, 4-chloro-N-(3-(4-(6-(4-fluoro-3-methoxyphenyl)imidazo[2,1-b]thiazol-5-yl)pyrimidin-2-ylamino)propyl)benzenesulfonamide], for which the IC50 at V600E-B-RAF was determined as 1.89 nM.

On to `CN1CCN(CCNc2nccc(-c3c(-c4cccc(O)c4)nc4occn34)n2)S1(=O)=O` [Compound 1II, 2-(2-((4-(6-(3-Hydroxylphenyl)imidazo[2,1-b]oxazol-5-yl)pyrimidin-2-yl)amino)ethyl)-5-methyl-1,2,5-thiadiazolidine 1,1-dioxide], for which the “Inhibitory effect … of V600E-RAF, in words” value on V600E-B-RAF is recorded as “excellent inhibitory effects”. Further, the “Inhibitory effect … of B-RAF, in words” value at B-RAF is on record as “excellent inhibitory effects”. For the same molecule, on C-RAF, the “Inhibitory effect … of C-RAF, in words” value was “excellent inhibitory effects” and the IC50 is 2.95 nM.

On to `O=S(=O)(NCCNc1nccc(-c2c(-c3cccc(O)c3)nc3sccn23)n1)c1ccc(F)cc1` [Compound 25III, 4-Fluoro-N-(2-((4-(6-(3-hydroxylphenyl)imidazo[2,1-b]thiazol-5-yl)pyrimidin-2-yl)amino)ethyl)benzenesulfonamide], for which the “Inhibitory effect … of V600E-RAF, in words” value at V600E-B-RAF is on record as “excellent inhibitory effects”. Moreover, on B-RAF, the “Inhibitory effect … of B-RAF, in words” value is recorded as “excellent inhibitory effects”. At C-RAF, the “Inhibitory effect … of C-RAF, in words” value is reported as “excellent inhibitory effects”.

In the case of `COc1ccc(S(=O)(=O)NCCCNc2nccc(-c3c(-c4ccc(F)c(O)c4)nc4sccn34)n2)cc1` [Compound 50III, N-(3-(4-(6-(4-fluoro-3-hydroxyphenyl)imidazo[2,1-b]thiazol-5-yl)pyrimidin-2-ylamino)propyl)-4-methoxybenzenesulfonamide], the half-inhibitory concentration (IC50) on V600E-B-RAF worked out at 0.05 nM.

For the molecule `COc1cc(-c2nc3sccn3c2-c2ccnc(NCCCNS(=O)(=O)c3ccc(F)cc3)n2)ccc1F` [Compound 37III, 4-Fluoro-N-(3-((4-(6-(4-fluoro-3-methoxyphenyl)imidazo[2,1-b]thiazol-5-yl)pyrimidin-2-yl)amino)propyl)benzenesulfonamide], the IC50 on V600E-B-RAF amounted to 1.66 nM; at B-RAF, 8.8 nM; on C-RAF, 13.8 nM.

On to `O=S(=O)(NCCCNc1nccc(-c2c(-c3ccc(F)c(O)c3)nc3sccn23)n1)c1ccc(Cl)cc1` [Compound 48III, 4-chloro-N-(3-(4-(6-(4-fluoro-3-hydroxyphenyl)imidazo[2,1-b]thiazol-5-yl)pyrimidin-2-ylamino)propyl)benzenesulfonamide], for which the IC50 at V600E-B-RAF is 0.27 nM.

With `Nc1cc(-c2nc3sccn3c2-c2ccnc(NCCCNS(=O)(=O)c3ccc(F)cc3)n2)ccc1F` [Compound 52III, N-(3-((4-(6-(3-amino-4-fluorophenyl)imidazo[2,1-b]thiazol-5-yl)pyrimidin-2-yl)amino)propyl)-4-fluorobenzenesulfonamide], the IC50 at V600E-B-RAF was 1.03 nM; at B-RAF, 2.68 nM; on C-RAF, 5.41 nM.

Consider `O=S(=O)(NCCCNc1nccc(-c2c(-c3ccc(F)c(O)c3)nc3occn23)n1)c1ccccc1` [73 IV, N-(3-(4-(6-(4-fluoro-3-hydroxyphenyl)imidazo[2,1-b]oxazol-5-yl)pyrimidin-2-ylamino)propyl)benzenesulfonamide], for which the IC50 at V600E-B-RAF is 0.16 nM.

As for `O=S(=O)(NCCNc1nccc(-c2c(-c3ccc(F)c(O)c3)nc3sccn23)n1)c1ccc(Cl)cc1` [Compound 43III, 4-chloro-N-(2-(4-(6-(4-fluoro-3-hydroxyphenyl)imidazo[2,1-b]thiazol-5-yl)pyrimidin-2-ylamino)ethyl)benzenesulfonamide], at V600E-B-RAF, the IC50 stood at 6.96 nM.

Turning to `COc1ccc(S(=O)(=O)NCCCNc2nccc(-c3c(-c4ccc(F)c(O)c4)nc4occn34)n2)cc1` [72 IV, N-(3-(4-(6-(4-fluoro-3-hydroxyphenyl)imidazo[2,1-b]oxazol-5-yl)pyrimidin-2-ylamino)propyl)-4-methoxybenzenesulfonamide], at V600E-B-RAF, the IC50 was 0.08 nM.

Turning to `O=S(=O)(NCCCNc1nccc(-c2c(-c3ccc(F)c(O)c3)nc3sccn23)n1)c1ccc(F)cc1` [Compound 42III, 4-Fluoro-N-(3-((4-(6-(4-fluoro-3-hydroxyphenyl)imidazo[2,1-b]thiazol-5-yl)pyrimidin-2-yl)amino)propyl)benzenesulfonamide], the IC50 on V600E-B-RAF was determined as 0.36 nM.

In the case of `O=S(=O)(NCCNc1nccc(-c2c(-c3ccc(F)c(O)c3)nc3occn23)n1)c1ccc(Cl)cc1` [65 IV, 4-chloro-N-(2-(4-(6-(4-fluoro-3-hydroxyphenyl)imidazo[2,1-b]oxazol-5-yl)pyrimidin-2-ylamino)ethyl)benzenesulfonamide], at V600E-B-RAF, the IC50 was 0.37 nM.

Consider `CCN1CCN(CCNc2nccc(-c3c(-c4ccc(F)c(O)c4)nc4sccn34)n2)S1(=O)=O` [Compound 31II], for which the results for the IC50 at V600E-B-RAF, at B-RAF and at C-RAF were 0.98 nM, 4.19 nM and 7.83 nM, respectively.

What is called IC50 is the concentration needed to halve the response being measured.
